In patent US20140255392A1 (BAYER INTELLECTUAL PROPERTY GMBH, priority 2011, published 2014) one finds IC50 data, which are given here for 19 compounds.

One may read the IC50 as the concentration needed to halve the response being measured.

The target in the assay is T1, human kinase Mps-1 (Homo sapiens, UniProt P33981).
T1 construct: N-terminally GST-tagged human full length recombinant Mps-1 kinase; GST (N); purchased Invitrogen, Karslruhe, Germany PV4071
T1 sequence (P33981 1-857): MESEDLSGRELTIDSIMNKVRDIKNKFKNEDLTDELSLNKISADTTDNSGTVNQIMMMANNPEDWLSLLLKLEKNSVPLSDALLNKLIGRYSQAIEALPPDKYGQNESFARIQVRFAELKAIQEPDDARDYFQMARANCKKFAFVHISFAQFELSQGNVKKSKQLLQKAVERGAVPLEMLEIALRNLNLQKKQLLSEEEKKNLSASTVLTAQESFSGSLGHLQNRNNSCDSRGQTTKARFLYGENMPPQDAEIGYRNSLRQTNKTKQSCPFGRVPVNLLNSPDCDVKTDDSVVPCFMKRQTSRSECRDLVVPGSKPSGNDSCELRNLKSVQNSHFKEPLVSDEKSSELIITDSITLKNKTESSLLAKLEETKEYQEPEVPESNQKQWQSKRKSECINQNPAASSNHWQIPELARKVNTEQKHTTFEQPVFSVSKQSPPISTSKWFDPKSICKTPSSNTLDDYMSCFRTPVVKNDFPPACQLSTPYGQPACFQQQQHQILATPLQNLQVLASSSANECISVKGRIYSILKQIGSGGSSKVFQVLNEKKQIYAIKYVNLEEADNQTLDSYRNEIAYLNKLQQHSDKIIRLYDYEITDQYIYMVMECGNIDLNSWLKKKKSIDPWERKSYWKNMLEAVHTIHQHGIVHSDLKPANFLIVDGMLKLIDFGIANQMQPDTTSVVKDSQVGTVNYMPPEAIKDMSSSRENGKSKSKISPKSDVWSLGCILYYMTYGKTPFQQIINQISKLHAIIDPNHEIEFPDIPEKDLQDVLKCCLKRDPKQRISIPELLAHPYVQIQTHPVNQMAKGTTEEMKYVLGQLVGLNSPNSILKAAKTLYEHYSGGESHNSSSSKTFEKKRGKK
Kind of assay: Mps-1 kinase assay (TR-FRET). It is filed as biochemical. As to conditions: N-terminally GST-tagged human full length recombinant Mps-1; 10 μM ATP; 1 μM peptide substrate; 60 min at 22° C. The procedure: The human kinase Mps-1 phosphorylates a biotinylated substrate peptide. Detection of the phosphorylated product is achieved by time-resolved fluorescence resonance energy transfer (TR-FRET) from Europium-labelled anti-phospho-Serine/Threonine antibody as donor to streptavidin labelled with cross-linked allophycocyanin (SA-XLent) as acceptor. Compounds are tested for their inhibition of the kinase activity.
N-terminally GST-tagged human full length recombinant Mps-1 kinase (purchased from Invitrogen, Karslruhe, Germany, cat. no PV4071) was used. As substrate for the kinase reaction a biotinylated peptide of the amino-acid sequence […] (C-terminus in amide form, purchased from Biosynthan GmbH, Berlin) was used.
The concentration of Mps-1 in the assay was adjusted to the activity of the enzyme lot and was chosen appropriate to have the assay in the linear range, typical enzyme concentrations were in the range of about 1 nM (final conc. in the 5 μl assay volume).
The resulting mixture was incubated 1 h at 22° C. to allow the binding of the phosphorylated peptide to the anti-phospho(Ser/Thr)-Europium-antibody. Subsequently the amount of phosphorylated substrate was evaluated by measurement of the resonance energy transfer from the Europium-labelled anti-phospho(Ser/Thr) antibody to the Streptavidin-XLent.
For the compound `Cc1cc(-c2cnc3c(NCCC(F)(F)F)cc(C(C)O)cn23)ccc1C(=O)NC1CC1` (racemic) [Example 143, N-cyclopropyl-4-{6-[(1RS)-1-hydroxyethyl]-8-[(3,3,3-trifluoropropyl)amino]imidazo[1,2-a]pyridin-3-yl}-2-methylbenzamide], the IC50 is 33.2 nM.

On to `CNC(=O)c1ccc(-c2cnc3c(NCCC(F)(F)F)cc(C(C)O)cn23)cc1C` (racemic) [Example 144, 4-{6-[(1RS)-1-Hydroxyethyl]-8-[(3,3,3-trifluoropropyl)amino]imidazo[1,2-a]pyridin-3-yl}-N,2-dimethylbenzamide], for which the IC50 turned out to be 233 nM.

Consider `CCNC(=O)c1ccc(-c2cnc3c(NCCC(F)(F)F)cc(C(C)O)cn23)cc1C` (racemic) [Example 145, N-ethyl-4-{6-[(1RS)-1-hydroxyethyl]-8-[(3,3,3-trifluoropropyl)amino]imidazo[1,2-a]pyridin-3-yl}-2-methylbenzamide], for which the IC50 is 250 nM.

Take `Cc1cc(-c2cnc3c(NCCC(F)(F)F)cc(Oc4cccc(F)c4)cn23)ccc1C(=O)N[C@H]1C[C@@H]1F` (relative stereo) [Example 12 (rac.-A), N-[rel-(1S,2S)-2-fluorocyclopropyl]-4-{6-(3-fluorophenoxy)-8-[(3,3,3-trifluoropropyl)amino]imidazo[1,2-a]pyridin-3-yl}-2-methylbenzamide]: the IC50 was 1.1 nM.

On to `C#Cc1cc(NCCC(F)(F)F)c2ncc(-c3ccc(C(=O)N[C@@H]4C[C@H]4F)c(C)c3)n2c1` (relative stereo) [Example 16, 4-{6-ethynyl-8-[(3,3,3-trifluoropropyl)amino]imidazo[1,2-a]pyridin-3-yl}-N-[rel-(1R,2R)-2-fluorocyclopropyl]-2-methylbenzamide], for which the IC50 is 29.4 nM.

Regarding `Cc1ccc(F)cc1Oc1cc(NCCC(F)(F)F)c2ncc(-c3ccc(C(=O)N[C@H]4C[C@@H]4F)c(C)c3)n2c1` (relative stereo) [Example 29, N-[rel-(1S,2S)-2-fluorocyclopropyl]-4-{6-(5-fluoro-2-methylphenoxy)-8-[(3,3,3-trifluoropropyl)amino]imidazo[1,2-a]pyridin-3-yl}-2-methylbenzamide], the IC50 is 1.3 nM.

As for `Cc1cc(-c2cnc3c(NCCC(F)(F)F)cc(Oc4cccc(Cl)c4)cn23)ccc1C(=O)N[C@@H]1C[C@H]1F` (relative stereo) [Example 39 (rac.-A), 4-{6-(3-chlorophenoxy)-8-[(3,3,3-trifluoropropyl)amino]imidazo[1,2-a]pyridin-3-yl}-N-[rel-(1R,2R)-2-fluorocyclopropyl]-2-methylbenzamide], the half-inhibitory concentration (IC50) was found to be 3.1 nM.

In the case of `Cc1cc(-c2cnc3c(NCCC(F)(F)F)cc(Oc4cccc(F)c4)cn23)ccc1C(=O)N[C@@H]1C[C@H]1C` (relative stereo) [Example 48, Rel-4-{6-(3-fluorophenoxy)-8-[(3,3,3-trifluoropropyl)amino]imidazo[1,2-a]pyridin-3-yl}-2-methyl-N-[(1R,2R)-2-methylcyclopropyl]benzamide], the IC50 came out at 2.1 nM.

As for `Cc1ccc(F)cc1Oc1cc(NCCC(F)(F)F)c2ncc(-c3ccc(C(=O)N[C@@H]4C[C@H]4C)c(C)c3)n2c1` (relative stereo) [Example 61, Rel-4-{6-(5-fluoro-2-methylphenoxy)-8-[(3,3,3-trifluoropropyl)amino]imidazo[1,2-a]pyridin-3-yl}-2-methyl-N-[(1R,2R)-2-methylcyclopropyl]benzamide], the IC50 amounted to 4.9 nM.

For the compound `C=Cc1cc(NCCC(F)(F)F)c2ncc(-c3ccc(C(=O)N[C@H]4C[C@@H]4F)c(C)c3)n2c1` (relative stereo) [Example 97, N-[rel-(1S,2S)-2-fluorocyclopropyl]-2-methyl-4-{8-[(3,3,3-trifluoropropyl)amino]-6-vinylimidazo[1,2-a]pyridin-3-yl}benzamide], the IC50 was 47.4 nM.

Turning to `C=Cc1cc(NCCC(F)(F)F)c2ncc(-c3ccc(C(=O)N[C@H]4C[C@@H]4C)c(C)c3)n2c1` (relative stereo) [Example 98, 2-Methyl-N-[rel-(1S,2S)-2-methylcyclopropyl]-4-{8-[(3,3,3-trifluoropropyl)amino]-6-vinylimidazo[1,2-a]pyridin-3-yl}benzamide], the IC50 was found to be 29.4 nM.

As for `CCc1cc(NCCC(F)(F)F)c2ncc(-c3ccc(C(=O)N[C@H]4C[C@@H]4F)c(C)c3)n2c1` (relative stereo) [Example 104, 4-{6-Ethyl-8-[(3,3,3-trifluoropropyl)amino]imidazo[1,2-a]pyridin-3-yl}-N-[rel-(1S,2S)-2-fluorocyclopropyl]-2-methylbenzamide], the half-inhibitory concentration (IC50) stood at 65.3 nM.

Consider `CCc1cc(NCCC(F)(F)F)c2ncc(-c3ccc(C(=O)N[C@H]4C[C@@H]4C)c(C)c3)n2c1` (relative stereo) [Example 105, 4-{6-Ethyl-8-[(3,3,3-trifluoropropyl)amino]imidazo[1,2-a]pyridin-3-yl}-2-methyl-N-[rel-(1S,2S)-2-methylcyclopropyl]benzamide], for which the half-maximal inhibitory concentration (IC50) came out at 49.8 nM.

Regarding `C/C=C/c1cc(NCCC(F)(F)F)c2ncc(-c3ccc(C(=O)N[C@H]4C[C@@H]4F)c(C)c3)n2c1` (relative stereo) [Example 116, N-[rel-(1S,2S)-2-fluorocyclopropyl]-2-methyl-4-{6-[(1E)-prop-1-en-1-yl]-8-[(3,3,3-trifluoropropyl)amino]imidazo[1,2-a]pyridin-3-yl}benzamide], the IC50 was 19.9 nM.

For the compound `C/C=C/c1cc(NCCC(F)(F)F)c2ncc(-c3ccc(C(=O)N[C@H]4C[C@@H]4C)c(C)c3)n2c1` (relative stereo) [Example 117, 2-Methyl-N-[rel-(1S,2S)-2-methylcyclopropyl]-4-{6-[(1E)-prop-1-en-1-yl]-8-[(3,3,3-trifluoropropyl)amino]imidazo[1,2-a]pyridin-3-yl}benzamide], the IC50 was 9.4 nM.

For the compound `Cc1cc(-c2cnc3c(NCCC(F)(F)F)cc(/C=C\CO)cn23)ccc1C(=O)N[C@@H]1C[C@H]1F` (relative stereo) [Example 118, N-[rel-(1R,2R)-2-fluorocyclopropyl]-4-{6-[(1Z)-3-hydroxyprop-1-en-1-yl]-8-[(3,3,3-trifluoropropyl)amino]imidazo[1,2-a]pyridin-3-yl}-2-methylbenzamide], the half-inhibitory concentration (IC50) came out at 19.9 nM.

For the compound `COc1ccc(Oc2cc(NCCC(F)(F)F)c3ncc(-c4ccc(C(=O)N[C@H]5C[C@@H]5F)c(C)c4)n3c2)cc1F` (relative stereo) [Example 124, N-[rel-(1S,2S)-2-fluorocyclopropyl]-4-{6-(3-fluoro-4-methoxyphenoxy)-8-[(3,3,3-trifluoropropyl)amino]imidazo[1,2-a]pyridin-3-yl}-2-methylbenzamide], the IC50 is 0.7 nM.

For the compound `COc1ccc(Oc2cc(NCCC(F)(F)F)c3ncc(-c4ccc(C(=O)N[C@H]5C[C@@H]5C)c(C)c4)n3c2)cc1F` (relative stereo) [Example 125, 4-{6-(3-fluoro-4-methoxyphenoxy)-8-[(3,3,3-trifluoropropyl)amino]imidazo[1,2-a]pyridin-3-yl}-2-methyl-N-[rel-(1S,2S)-2-methylcyclopropyl]benzamide], the 50% inhibitory concentration (IC50) was determined as 2 nM.

In the case of `Cc1cc(-c2cnc3c(NCCC(F)(F)F)cc(-c4ccccc4O)cn23)ccc1C(=O)N[C@H]1C[C@@H]1F` (relative stereo) [Example 135, N-[rel-(1S,2S)-2-fluorocyclopropyl]-4-{6-(2-hydroxyphenyl)-8-[(3,3,3-trifluoropropyl)amino]imidazo[1,2-a]pyridin-3-yl}-2-methylbenzamide], the half-inhibitory concentration (IC50) came to 8.4 nM.
